Legend:
Assay type in all cases: cell-based, human
A375 cells [1] = assay: Cell morphology after siRNA transfection, A375 cells; details: not shown
SK-MEL-28 cells = assay: Cell morphology after siRNA transfection, SK-MEL-28 cells; details: not shown
[2] = test system: stably Zic5 gene-expressed line (SK-MEL-28 cells); assay: Transwell Migration Assay, stably Zic5 gene-expressed line; details: normalized to total viable cells; siNeg#1 set to 1
Procedure: Specifically, the stably Zic5 gene-expressed line and the stably Flag-expressed line were seeded in a 24-well plate into which an insert with 8-μm sized pores (manufactured by BD Biosciences) was put and were cultured in RPMI 1640 medium containing 10% FBS, and then the number of migrated cells was counted.
The influence of suppressing MLC2 phosphorylation on migration ability of cells was analyzed. Specifically, Transwell Migration Assay was performed in the same manner as above with the stably Zic5 gene-expressed line and the stably Flag-expressed line in a state of being treated or non-treated with a ROCK inhibitor (Y27632), and then the number of migrated cells was counted.
The number of migrated cells was normalized to a total number of viable cells. A relative cell number (n=3) in which the number of migrated cells transfected with siNeg#1 of each cell was set to 1 is shown in FIG. 29. The statistical difference was determined by the Tukey's multiple comparisons of means test (**: P<0.01, *: P<0.05).

A375 cells [3] = assay: Cell cycle analysis (PI staining, flow cytometry), A375 cells; details: average value
Procedure: In cell cycle analysis, first, the cells were cultured in serum-free medium for 24 hours and then cultured in media containing 10% FBS for 24 hours. Next, the cells were fixed, stained with propidium iodide (PI), and then flow cytometry analysis (SH800, manufactured by Sony) was performed. The obtained data was analyzed using analysis software, FlowJo (manufactured by TOMY DIGITAL BIOLOGY, Tokyo, Japan). As a result, a sub-G1 population of cells increased in the cells in which Zic5 gene knockdown occurred.
Furthermore, a cell cycle of each cell was examined with respect to A375 cells. An average value (SD) of percentages (%) of cells in G1 population, S population, and G2M population of each cell is shown in Table 9. […] As a result, percentages of cells in the S population and G2M population of A375 cells were reduced by PDGFD gene knockdown.

[4] = test system: phosphorylated ERK1/2 (Thr202/204) (pERK); assay: Western blotting of phosphorylated ERK1/2; details: vemR-3 cells; PLX4032 or DMSO treatment; siRNA vs siNeg
Procedure: Western blotting was performed in the same manner as above except that anti-pAKT antibody (manufactured by Cell Signaling), anti-AKT antibody (manufactured by Cell Signaling), anti-pERK antibody (manufactured by Cell Signaling), anti-ERK antibody (manufactured by Cell Signaling), and anti-β-actin antibody (manufactured by Sigma) were used.
vemR-1 to 3 cells and HT144 cells were treated with DMSO or PLX4032 solution (which was dissolved in DMSO to become 5 μM) for 48 hours, and the level of pAKT, AKT, pERK, ERK, and β-actin of these cells was assessed by western blotting in the same manner as Example 8.
A375 cells were treated in a medium in which a concentration of a FAK inhibitor I (manufactured by Calbiochem) was 0, 1, 2.5, or 5 μM for 24 hours, and the level of ZIC5, pro-PDGFD, pERK, and β-actin was measured by western blotting. Western blotting was performed in the same manner as above except that anti-ZIC5 antibody (manufactured by Aviva systems biology), anti-PDGFD antibody (manufactured by Santa Cruz), anti-pERK antibody (manufactured by Cell Signaling), and anti-β-actin antibody (manufactured by Sigma) were used.
A375 cells were treated in a medium in which a concentration of Interleukin-6 (IL-6) (manufactured by Novus Biologicals) was 0, 10, or 20 ng/mL for 24 hours, and then western blotting was performed to assess the level of ZIC5, pro-PDGFD, pSTAT3, STAT3, and GAPDH. […]

DU145 cells [5] = assay: Cell number count, DU145 cells; details: 0, 2, or 3 days after transfection
Description: First, DU145 cells were transfected with siZIC5#1, siZIC5#2, siNeg#1, or siNeg#2 described in Table 2 in the same manner as Example 1, and the number of cells 0, 2, or 3 days after transfection was counted. The result of calculating a relative cell number of each cell (the number of cells on 0th day after transfection (before transfection) was set to 1) (n=3) is shown in FIG. 44.
The result of calculating a relative cell number of each cell (the number of cells on 0th day after transfection (before transfection) was set to 1) (n=3) is shown in FIG. 47.

DU145 cells [6] = assay: Annexin V-positive cells, DU145 cells; details: siRNA then docetaxel 5 nM for 24 hours
Procedure: (§1) The percentage of Annexin V-positive cells was measured as follows. First, FITC labeled Annexin V (manufactured by MBL, Nagoya, Japan) and Hoechst33342 were added to each cell and incubated for 40 minutes. Next, a stained state of the incubated cells was analyzed by using DAPI filter and FITC filter of an imaging cytometer, “In Cell Analyzer 2000” (manufactured by GE healthcare). Percentage (%) of […] was determined by In Cell Analyzer Workstation 3.7 (manufactured by GE healthcare). The statistical difference was determined by the Tukey's multiple comparisons of means test (**: P<0.01, *: P<0.05).

vemR-3 cells = assay: Annexin V-positive cells, vemR-3 cells; details: vs siNeg
Procedure: as §1
A percentage of apoptotic cells in the obtained cells was detected by using FITC labeled Annexin V (manufactured by MBL, Nagoya, Japan) in the same manner as Example 7.

## siPDGFD#1: siRNA for PDGFD gene; targeting sequence CAGGAATTACTCGGTCAATAT (SEQ. NO. 28) (listed as DNA, chemistry not given here)
A375 cells [1]
  morphological change of cells after siRNA transfection: morphological change occurred
SK-MEL-28 cells
  morphological change of cells after siRNA transfection: morphological change occurred
[2]
  increase in the number of migrated cells by Zic5 gene overexpression: completely suppressed
A375 cells [3]
  percentage of cells in G1 population: 71.6%
  percentage of cells in G2M population: 18.6%
  percentage of cells in S population: 8.1%
[4]
  pERK level (inactivation of ERK): the pERK level decreased
DU145 cells [5]
  relative cell number (0th day set to 1), cell proliferation rate: decreased
DU145 cells [6]
  apoptosis induced by docetaxel (percentage of Annexin V-positive cells): significantly increased
vemR-3 cells
  percentage of Annexin V-positive cells: significantly increased

— patent US10669545B2, “Tumor cell malignant transformation suppressor and anti-tumor agent” (JAPAN SCIENCE AND TECHNOLOGY AGENCY, priority 2015, dated 2020)
